Consider twelve molecules from ChEMBL document CHEMBL1201862, “PubChem BioAssay data set” (2004).

What all share (experiment): inhibition of tumour cell growth, NCI panel, 48 h
The subject of assay [1] is 786-0.
Assay [2] relates to A549.
Assay [3] relates to CCRF-CEM.
Assay [4] concerns HCT-15.
The test system of assay [5] is HT-29.
Assay [6] relates to M14.
Assay [7] relates to MOLT-4.
Assay [8] has as its system NCI-H226.
Assay [9] concerns NCI-H460.
Assay [10] deals with OVCAR-3.
For assay [11], the system named is SK-MEL-2.
Assay [12] deals with SK-OV-3.
Assay [13] has as its system SW-620.
Assay [14] relates to TK-10.
The test system of assay [15] is U-251.
Assay [16] deals with UACC-257.
Assay [17] concerns UACC-62.
For assay [18], the system named is RPMI-8226.
In assay [19] the test system is SK-MEL-5.
In assay [20] the test system is SNB-75.

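Test compounds were applied to cells in 96-well plates for 48 hours at 5 doses. Abbreviation: GI50, concentration required for 50% inhibition of growth.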 Active and inactive are the calls of the source. Cut-off read from the data, not from the text of the source: active = GI50 up to about 1.1 µM and inactive = higher. Residues, ends and D or L forms follow the SMILES beside them. *: point of attachment. Boc = CC(C)(C)OC(=O)* A value given as a limit tells only on which side of the number the result lay.

Consider `c1ccc(N/N=C2\NN=C(c3ccccc3)CS2)cc1`, for which the GI50 in assay [1] is 15.7 µM (inactive); in assay [2], 4.78 µM (inactive); in assay [3], 3.17 µM (inactive); in [4], 4.59 µM; in assay [5] it was 6.89 µM (inactive); in [6] it was 6.73 µM (inactive). The GI50 is 3.66 µM (inactive) in assay [7]; 16 µM (inactive) in assay [8]; 14 µM (inactive) in assay [9]; 14.9 µM (inactive) in assay [10]; 18.2 µM (inactive) in [11]; 14.9 µM (inactive) in assay [12]. Further, the GI50 is 12.1 µM (inactive) in assay [13]; 11.5 µM (inactive) in assay [14]; > 10 µM (inactive) in assay [15]; 16 µM (inactive) in assay [16]; 5.81 µM (inactive) in assay [17].
Turning to `S=C(N/N=C/c1ccccn1)N1CCCCCC1`, the GI50 in [1] was < 0.01 µM (active); in assay [2], < 0.0142 µM (active); in [3] it was < 0.01 µM (active); in [4] it was under 0.01 µM; in assay [5], < 0.01 µM (active); in [6], < 0.01 µM (active). Also, the GI50 in assay [7] was < 0.01 µM (active); in assay [9], < 0.01 µM (active); in assay [10], < 0.01 µM (active); in [18], < 0.01 µM (active); in [11], 0.0659 µM (active); in [19] it was < 0.0141 µM (active). The GI50 was < 0.01 µM (active) in [12]; 0.0783 µM (active) in assay [20]; < 0.01 µM (active) in assay [13]; 0.0101 µM (active) in assay [14]; < 0.01 µM (active) in [15]; < 0.01 µM (active) in [16]. In addition, the GI50 in assay [17] was < 0.0245 µM (active).
With `O=C1O/C(=C\c2ccc(O)cc2)C(c2ccc(O)c(Cl)c2)=C1Br`, the GI50 in assay [1] is 13 µM (inactive); in [3], 5.94 µM (inactive); in assay [4] it was 12.9 µM; in assay [5], 16.4 µM (inactive); in assay [6] it was 13.6 µM (inactive); in assay [7], 11.7 µM (inactive). Moreover, the GI50 in [9] was 12.8 µM (inactive); in assay [10] it was 7 µM (inactive); in [18] it was 10.6 µM (inactive); in assay [11], 14 µM (inactive); in assay [19], 12.7 µM (inactive); in assay [12], 14 µM (inactive). The GI50 in assay [13] was 15.9 µM (inactive); in [14] it was 18.9 µM (inactive); in [15], 18 µM (inactive); in assay [16], 13.9 µM (inactive); in [17] it was 13.7 µM (inactive).
With `O=C1NC2CCCCCC2C12CCCCC2` (stereo not drawn), the GI50 in assay [2] is > 100 µM (inactive); in assay [3], > 100 µM (inactive); in assay [4], over 100 µM; in assay [5], > 100 µM (inactive); in assay [6], > 100 µM (inactive); in [7], > 100 µM (inactive). Moreover, the GI50 in assay [8], in [9], in assay [10], in assay [12], in assay [20] and in assay [13] was > 100 µM (inactive) throughout. Also, the GI50 in assay [14], in [15], in [16] and in [17] was > 100 µM (inactive) each time.
For the molecule `CC(=O)c1cc2sc3ccccc3c2[nH]1`, the GI50 is > 100 µM (inactive) in [1]; > 100 µM (inactive) in assay [2]; over 100 µM in assay [4]; > 100 µM (inactive) in assay [5]; > 100 µM (inactive) in [6]; > 100 µM (inactive) in [7]. In addition, the GI50 in assay [9] is > 100 µM (inactive); in [10] it was > 100 µM (inactive); in assay [18] it was 16.3 µM (inactive); in assay [11], > 100 µM (inactive); in [19] it was > 100 µM (inactive); in [12] it was > 100 µM (inactive). Besides, the GI50 in assay [13] is > 100 µM (inactive); in [14], > 100 µM (inactive); in assay [15], > 100 µM (inactive); in [17], 26.7 µM (inactive).
On to `O=c1cnnc2sc(=S)[nH]n12`, for which the GI50 was 22.5 µM (inactive) in assay [1]; 46.7 µM (inactive) in assay [2]; 2.07 µM (inactive) in assay [3]; 19.6 µM in assay [4]; 39.8 µM (inactive) in assay [5]; 84.1 µM (inactive) in assay [6]. For the same molecule, the GI50 in [7] was 15 µM (inactive); in assay [9] it was 26.7 µM (inactive); in [10], 32.4 µM (inactive); in [18] it was 13.7 µM (inactive); in assay [11] it was > 100 µM (inactive); in assay [19], 20.1 µM (inactive). Also, the GI50 is 12.4 µM (inactive) in [13], 22.1 µM (inactive) in assay [15], 15.9 µM (inactive) in [16] and 18.2 µM (inactive) in assay [17].
As for `CC(NC(=O)C(NC(=O)OC(C)(C)C)C(C)C)C(=O)N1CCCC1C(=O)NCC(=O)NC(C(=O)NCC(=O)O)C(C)C` (stereo not drawn) (Boc-VAPGVG-OH; configuration not given here), the GI50 in assay [1] is > 100 µM (inactive); in assay [3], > 100 µM (inactive); in assay [4], over 100 µM; in assay [5], > 100 µM (inactive); in assay [6] it was > 100 µM (inactive); in assay [7], > 100 µM (inactive). The GI50 in [9] was 65.5 µM (inactive); in assay [10] it was > 100 µM (inactive); in assay [18] it was > 100 µM (inactive); in assay [11] it was > 100 µM (inactive); in assay [12], > 100 µM (inactive); in [20] it was 29.2 µM (inactive). The GI50 in [13], in assay [14], in [15], in assay [16] and in assay [17] was > 100 µM (inactive) throughout.
Take `O=C1c2cccc3cccc(c23)C(=O)N1O`: the GI50 in [1] is 49.9 µM (inactive); in [2], 77.1 µM (inactive); in assay [3] it was 18.5 µM (inactive); in [4] it was 40.9 µM; in assay [5], 51.8 µM (inactive); in [6], 51.9 µM (inactive). Further, the GI50 in [7] is 69.7 µM (inactive); in assay [9], 29.2 µM (inactive); in assay [10], 57.4 µM (inactive); in assay [18], 45.6 µM (inactive); in assay [11], 86.5 µM (inactive); in assay [19], > 100 µM (inactive). Further, the GI50 in assay [12] was 68.2 µM (inactive); in assay [20], 27.7 µM (inactive); in assay [13] it was 14.5 µM (inactive); in assay [14], > 100 µM (inactive); in [15], 28.6 µM (inactive); in assay [16], > 100 µM (inactive). The GI50 in assay [17] is > 100 µM (inactive).
Consider `O=c1sc(Nc2ccc3ccccc3c2Cl)nc2ccccc12`, for which the GI50 in [1] is > 100 µM (inactive); in assay [2], > 100 µM (inactive); in assay [3], > 100 µM (inactive); in assay [4], over 100 µM; in assay [5], > 100 µM (inactive); in assay [9], 60.4 µM (inactive). Further, the GI50 in assay [10] is > 100 µM (inactive); in assay [18] it was > 100 µM (inactive); in assay [11], > 100 µM (inactive); in assay [19], > 100 µM (inactive); in assay [12], > 100 µM (inactive); in assay [20], 49.3 µM (inactive). In addition, the GI50 in assay [13], in assay [14], in assay [15], in [16] and in assay [17] was > 100 µM (inactive) in each case.
Consider `CC1C(/C=C/c2ccoc2)ON2CCCC12` (stereo not drawn), for which the GI50 is > 100 µM (inactive) in assay [1]; > 100 µM (inactive) in [5]; > 10 µM (inactive) in [6]; > 100 µM (inactive) in [8]; > 100 µM (inactive) in [9]; > 100 µM (inactive) in assay [11]. Also, the GI50 in assay [20], in assay [13], in assay [14], in assay [15] and in assay [16] was > 100 µM (inactive) each time.
Consider `CCCCCCCCCCCC(=O)C1=C(O)CCC(O)C1=O` (stereo not drawn), for which the GI50 in [1] is 19.4 µM (inactive); in [2], 29.9 µM (inactive); in assay [3], 8.18 µM (inactive); in assay [4], 8.89 µM; in assay [5], 15.6 µM (inactive); in assay [7], 17.9 µM (inactive). The GI50 in [8] was 18 µM (inactive); in assay [9], 15.7 µM (inactive); in assay [10], 10.8 µM (inactive); in assay [11] it was 11.9 µM (inactive); in [19], 10 µM (inactive); in assay [12] it was 26.8 µM (inactive). Also, the GI50 is 21.6 µM (inactive) in [20]; 13.2 µM (inactive) in assay [13]; 18.4 µM (inactive) in [14]; 14.6 µM (inactive) in assay [15]; 14.7 µM (inactive) in assay [16]; 10.8 µM (inactive) in assay [17].
As for `CC(=O)C1C(=O)C(=O)N(c2ccc(Cl)cc2C)C1=O` (stereo not drawn), the GI50 in assay [1] is > 100 µM (inactive); in [2], > 100 µM (inactive); in assay [3], > 100 µM (inactive); in assay [4], over 100 µM; in [5], > 100 µM (inactive); in [6], > 100 µM (inactive). The GI50 in [7], in [9], in assay [11], in assay [19], in assay [13] and in [14] was > 100 µM (inactive) throughout. The GI50 in assay [15], in assay [16] and in assay [17] was > 100 µM (inactive) throughout.
